Results from paper PMC12102759 (Protein Science : A Publication of the Protein Society, 2025).
Read-outs that look alike come from different tables or passages of the source.

Tested on: PABPC1 PABC
Format: binding, human
Details: DMS-BM library, bait PABPC1 PABC, row aa = residue at this position; for DMS-derived PSSM value, position R14 / DMS-derived PSSM value, position R12 / DMS-derived PSSM value (averaged), position R12: R = wild type; for DMS-derived PSSM value (averaged), position A6 / DMS-derived PSSM value, position A6: A = wild type; for DMS-derived PSSM value (averaged), position S13 / DMS-derived PSSM value, position S15: S = wild type
[1] = prey ATXN2, peptide TLNPNAKEFNPRSFSQ, L = wild type
[2] = prey ATXN2, peptide KSTLNPNAKEFNPRSF
[3] = prey ATXN2, TLNPNAKEFNPRSF(averaged) over the two overlapping peptides
[4] = prey ATXN2, peptide KSTLNPNAKEFNPRSF, N = wild type
[5] = prey ATXN2, peptide KSTLNPNAKEFNPRSF, E = wild type
[6] = prey ATXN2, peptide TLNPNAKEFNPRSFSQ
[7] = prey ATXN2, TLNPNAKEFNPRSF(averaged) over the two overlapping peptides, T = wild type
[8] = prey ATXN2, peptide KSTLNPNAKEFNPRSF, F = wild type
[9] = prey ATXN2, peptide TLNPNAKEFNPRSFSQ, N = wild type
[10] = prey ATXN2, TLNPNAKEFNPRSF(averaged) over the two overlapping peptides, N = wild type
[11] = prey ATXN2, peptide KSTLNPNAKEFNPRSF, P = wild type
[12] = prey ATXN2, peptide TLNPNAKEFNPRSFSQ, K = wild type
[13] = prey ATXN2, peptide KSTLNPNAKEFNPRSF, T = wild type
[14] = prey ATXN2, TLNPNAKEFNPRSF(averaged) over the two overlapping peptides, F = wild type
[15] = prey ATXN2, peptide TLNPNAKEFNPRSFSQ, P = wild type

TLNPNAKEFNPRSFSQ L2R (TRNPNAKEFNPRSFSQ)
DMS-derived PSSM value, position L2 [1]: 0

KSTLNPNAKEFNPRSF R14G (KSTLNPNAKEFNPGSF)
DMS-derived PSSM value, position R14 [2]: 0.105

KSTLNPNAKEFNPRSF R14A (KSTLNPNAKEFNPASF)
DMS-derived PSSM value, position R14 [2]: 0.09772

TLNPNAKEFNPRSFSQ L2M (TMNPNAKEFNPRSFSQ)
DMS-derived PSSM value, position L2 [1]: 0.1261

TLNPNAKEFNPRSF(averaged) A6V (TLNPNVKEFNPRSF)
DMS-derived PSSM value (averaged), position A6 [3]: 0.3197

KSTLNPNAKEFNPRSF N12A (KSTLNPNAKEFAPRSF)
DMS-derived PSSM value, position N12 [4]: 0.1266

KSTLNPNAKEFNPRSF N5Y (KSTLYPNAKEFNPRSF)
DMS-derived PSSM value, position N5 [4]: 0.01612

KSTLNPNAKEFNPRSF N7E (KSTLNPEAKEFNPRSF)
DMS-derived PSSM value, position N7 [4]: 0.03193

KSTLNPNAKEFNPRSF E10R (KSTLNPNAKRFNPRSF)
DMS-derived PSSM value, position E10 [5]: 0

TLNPNAKEFNPRSF(averaged) E8N (TLNPNAKNFNPRSF)
DMS-derived PSSM value (averaged), position E8 (prey ATXN2, TLNPNAKEFNPRSF(averaged) over the two overlapping peptides, E = wild type): 0.07264

KSTLNPNAKEFNPRSF E10I (KSTLNPNAKIFNPRSF)
DMS-derived PSSM value, position E10 [5]: 0

TLNPNAKEFNPRSFSQ R12Y (TLNPNAKEFNPYSFSQ)
DMS-derived PSSM value, position R12 [6]: 0.05186

KSTLNPNAKEFNPRSF K9V (KSTLNPNAVEFNPRSF)
DMS-derived PSSM value, position K9 (prey ATXN2, peptide KSTLNPNAKEFNPRSF, K = wild type): 0.0001287

TLNPNAKEFNPRSFSQ A6M (TLNPNMKEFNPRSFSQ)
DMS-derived PSSM value, position A6 [6]: 0

TLNPNAKEFNPRSF(averaged) T1R (RLNPNAKEFNPRSF)
DMS-derived PSSM value (averaged), position T1 [7]: 0.04124

KSTLNPNAKEFNPRSF L4Q (KSTQNPNAKEFNPRSF)
DMS-derived PSSM value, position L4 (prey ATXN2, peptide KSTLNPNAKEFNPRSF, L = wild type): 0

KSTLNPNAKEFNPRSF F16Q (KSTLNPNAKEFNPRSQ)
DMS-derived PSSM value, position F16 [8]: 0.002875

TLNPNAKEFNPRSFSQ T1G (GLNPNAKEFNPRSFSQ)
DMS-derived PSSM value, position T1 (prey ATXN2, peptide TLNPNAKEFNPRSFSQ, T = wild type): 0.1015

TLNPNAKEFNPRSFSQ N10F (TLNPNAKEFFPRSFSQ)
DMS-derived PSSM value, position N10 [9]: 0.002727

KSTLNPNAKEFNPRSF E10N (KSTLNPNAKNFNPRSF)
DMS-derived PSSM value, position E10 [5]: 0.01939

KSTLNPNAKEFNPRSF N12W (KSTLNPNAKEFWPRSF)
DMS-derived PSSM value, position N12 [4]: 0.1585

TLNPNAKEFNPRSFSQ A6K (TLNPNKKEFNPRSFSQ)
DMS-derived PSSM value, position A6 [6]: 0

TLNPNAKEFNPRSF(averaged) N5R (TLNPRAKEFNPRSF)
DMS-derived PSSM value (averaged), position N5 [10]: 0.004628

KSTLNPNAKEFNPRSF R14Q (KSTLNPNAKEFNPQSF)
DMS-derived PSSM value, position R14 [2]: 0.09624

TLNPNAKEFNPRSFSQ A6F (TLNPNFKEFNPRSFSQ)
DMS-derived PSSM value, position A6 [6]: 0

TLNPNAKEFNPRSFSQ N3Q (TLQPNAKEFNPRSFSQ)
DMS-derived PSSM value, position N3 [9]: 0.055

TLNPNAKEFNPRSF(averaged) R12D (TLNPNAKEFNPDSF)
DMS-derived PSSM value (averaged), position R12 [3]: 0.02577

TLNPNAKEFNPRSF(averaged) R12A (TLNPNAKEFNPASF)
DMS-derived PSSM value (averaged), position R12 [3]: 0.05134

TLNPNAKEFNPRSFSQ L2T (TTNPNAKEFNPRSFSQ)
DMS-derived PSSM value, position L2 [1]: 0

TLNPNAKEFNPRSF(averaged) N5Q (TLNPQAKEFNPRSF)
DMS-derived PSSM value (averaged), position N5 [10]: 0.02375

KSTLNPNAKEFNPRSF P6R (KSTLNRNAKEFNPRSF)
DMS-derived PSSM value, position P6 [11]: 0

KSTLNPNAKEFNPRSF R14S (KSTLNPNAKEFNPSSF)
DMS-derived PSSM value, position R14 [2]: 0.06387

TLNPNAKEFNPRSFSQ N10H (TLNPNAKEFHPRSFSQ)
DMS-derived PSSM value, position N10 [9]: 0.0229

TLNPNAKEFNPRSFSQ K7S (TLNPNASEFNPRSFSQ)
DMS-derived PSSM value, position K7 [12]: 0.01353

KSTLNPNAKEFNPRSF T3H (KSHLNPNAKEFNPRSF)
DMS-derived PSSM value, position T3 [13]: 0.01262

TLNPNAKEFNPRSF(averaged) S13I (TLNPNAKEFNPRIF)
DMS-derived PSSM value (averaged), position S13 [3]: 0.01901

TLNPNAKEFNPRSF(averaged) A6E (TLNPNEKEFNPRSF)
DMS-derived PSSM value (averaged), position A6 [3]: 0

TLNPNAKEFNPRSF(averaged) S13N (TLNPNAKEFNPRNF)
DMS-derived PSSM value (averaged), position S13 [3]: 0.08567

TLNPNAKEFNPRSFSQ K7L (TLNPNALEFNPRSFSQ)
DMS-derived PSSM value, position K7 [12]: 0.0009142

TLNPNAKEFNPRSF(averaged) F9P (TLNPNAKEPNPRSF)
DMS-derived PSSM value (averaged), position F9 [14]: 0

TLNPNAKEFNPRSFSQ P11V (TLNPNAKEFNVRSFSQ)
DMS-derived PSSM value, position P11 [15]: 0.1131

KSTLNPNAKEFNPRSF P13A (KSTLNPNAKEFNARSF)
DMS-derived PSSM value, position P13 [11]: 0.005231

TLNPNAKEFNPRSF(averaged) K7R (TLNPNAREFNPRSF)
DMS-derived PSSM value (averaged), position K7 (prey ATXN2, TLNPNAKEFNPRSF(averaged) over the two overlapping peptides, K = wild type): 0.01712

KSTLNPNAKEFNPRSF T3A (KSALNPNAKEFNPRSF)
DMS-derived PSSM value, position T3 [13]: 0.04081

KSTLNPNAKEFNPRSF F16Y (KSTLNPNAKEFNPRSY)
DMS-derived PSSM value, position F16 [8]: 0.101

TLNPNAKEFNPRSF(averaged) R12K (TLNPNAKEFNPKSF)
DMS-derived PSSM value (averaged), position R12 [3]: 0.01002

TLNPNAKEFNPRSF(averaged) N3W (TLWPNAKEFNPRSF)
DMS-derived PSSM value (averaged), position N3 [10]: 0

KSTLNPNAKEFNPRSF F11L (KSTLNPNAKELNPRSF)
DMS-derived PSSM value, position F11 [8]: 0

TLNPNAKEFNPRSFSQ S15E (TLNPNAKEFNPRSFEQ)
DMS-derived PSSM value, position S15 [6]: 0.1009

TLNPNAKEFNPRSF(averaged) T1F (FLNPNAKEFNPRSF)
DMS-derived PSSM value (averaged), position T1 [7]: 0.03587

TLNPNAKEFNPRSF(averaged) F9T (TLNPNAKETNPRSF)
DMS-derived PSSM value (averaged), position F9 [14]: 0.02947

KSTLNPNAKEFNPRSF F11K (KSTLNPNAKEKNPRSF)
DMS-derived PSSM value, position F11 [8]: 0.006092

KSTLNPNAKEFNPRSF N7P (KSTLNPPAKEFNPRSF)
DMS-derived PSSM value, position N7 [4]: 0

TLNPNAKEFNPRSFSQ N5W (TLNPWAKEFNPRSFSQ)
DMS-derived PSSM value, position N5 [9]: 0.001259

KSTLNPNAKEFNPRSF F16R (KSTLNPNAKEFNPRSR)
DMS-derived PSSM value, position F16 [8]: 0

TLNPNAKEFNPRSFSQ S15P (TLNPNAKEFNPRSFPQ)
DMS-derived PSSM value, position S15 [6]: 0.326

TLNPNAKEFNPRSFSQ F9A (TLNPNAKEANPRSFSQ)
DMS-derived PSSM value, position F9 (prey ATXN2, peptide TLNPNAKEFNPRSFSQ, F = wild type): 0

TLNPNAKEFNPRSFSQ R12M (TLNPNAKEFNPMSFSQ)
DMS-derived PSSM value, position R12 [6]: 0.04074

TLNPNAKEFNPRSF(averaged) R12S (TLNPNAKEFNPSSF)
DMS-derived PSSM value (averaged), position R12 [3]: 0.1293

TLNPNAKEFNPRSF(averaged) A6W (TLNPNWKEFNPRSF)
DMS-derived PSSM value (averaged), position A6 [3]: 0

TLNPNAKEFNPRSFSQ P4R (TLNRNAKEFNPRSFSQ)
DMS-derived PSSM value, position P4 [15]: 0

KSTLNPNAKEFNPRSF F11Y (KSTLNPNAKEYNPRSF)
DMS-derived PSSM value, position F11 [8]: 0.3016
